The values below come from ChEMBL document CHEMBL2331402, “Salicylaldoxime derivatives as new leads for the development of carbonic anhydrase inhibitors” (Bioorg Med Chem, 2013).

Sequence of Carbonic anhydrase 1 (P00915 whole entry): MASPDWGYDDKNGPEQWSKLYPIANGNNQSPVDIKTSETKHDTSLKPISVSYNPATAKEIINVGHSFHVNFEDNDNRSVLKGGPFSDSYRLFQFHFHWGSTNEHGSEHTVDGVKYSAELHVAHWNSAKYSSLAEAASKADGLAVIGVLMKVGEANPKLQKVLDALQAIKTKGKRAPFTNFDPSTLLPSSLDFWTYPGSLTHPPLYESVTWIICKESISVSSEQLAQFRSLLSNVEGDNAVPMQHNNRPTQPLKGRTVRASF

For one assay, the target named is Carbonic anhydrase 12 (Homo sapiens, UniProt O43570). The assay is described as follows: Inhibition of human recombinant carbonic anhydrase 12 preincubated for 15 mins by CO2 hydration stopped-flow assay.
Sequence of Carbonic anhydrase 12 (O43570 whole entry): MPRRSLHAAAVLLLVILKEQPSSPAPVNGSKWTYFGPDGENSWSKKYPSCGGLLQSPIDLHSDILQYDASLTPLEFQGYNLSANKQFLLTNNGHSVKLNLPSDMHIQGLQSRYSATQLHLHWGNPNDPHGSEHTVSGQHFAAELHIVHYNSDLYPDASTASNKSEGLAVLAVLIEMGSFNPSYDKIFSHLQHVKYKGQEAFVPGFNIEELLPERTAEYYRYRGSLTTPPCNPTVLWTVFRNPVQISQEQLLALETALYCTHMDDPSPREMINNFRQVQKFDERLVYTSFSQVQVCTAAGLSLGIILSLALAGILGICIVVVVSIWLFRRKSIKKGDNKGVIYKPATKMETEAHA
As usually defined, the Ki is a dissociation constant, usually derived from enzyme kinetics or from competition with a known ligand. With `COc1ccc(-c2ccc(O)c(/C=N/O)c2)cc1F`, the Ki was 5.94 µM.
As to `N#Cc1c(-c2ccc(O)cc2)ccc(/C=N/O)c1O`, the Ki is 3.14 µM.
The same measure, in the same setting: the result for `O/N=C/c1c(O)ccc(-c2ccc(O)cc2)c1Cl` reads 4.31 µM; that for `C/C(=N\O)c1ccc(-c2ccc(O)c(F)c2)c(Cl)c1O`, 4.77 µM.
For `O/N=C/c1c(O)ccc(-c2ccc(O)c(F)c2)c1Cl`, the inhibition constant (Ki) is 5.53 µM.
The same measure, in the same setting: the figure for `Cc1c(-c2ccc(O)cc2)ccc(/C=N/O)c1O` is 7.45 µM; for `C/C(=N\O)c1ccc(-c2ccc(O)cc2)c(Cl)c1O` it is 4.53 µM.
As for `O/N=C/c1cc(-c2ccc(O)c(F)c2)ccc1O`, the Ki is 4.24 µM.

The target of another assay is Carbonic anhydrase 9 (Homo sapiens, UniProt Q16790). The assay is described as follows: Inhibition of human recombinant carbonic anhydrase 9 preincubated for 15 mins by CO2 hydration stopped-flow assay.
In the case of `COc1ccc(-c2ccc(O)c(/C=N/O)c2)cc1F`, the inhibitory constant (Ki) was found to be 10.2 µM.
On the same count and under the same terms, the result for `N#Cc1c(-c2ccc(O)cc2)ccc(/C=N/O)c1O` reads 7.72 µM; that for `C/C(=N\O)c1ccc(-c2ccc(O)c(F)c2)c(Cl)c1O`, 7.08 µM.
For the compound `O/N=C/c1c(O)ccc(-c2ccc(O)c(F)c2)c1Cl`, the inhibition constant (Ki) amounted to 7.04 µM.
Take `Oc1cc(F)cc(F)c1`: the Ki came out at 0.944 µM.
The same measure, in the same setting: the figure for `Cc1c(-c2ccc(O)cc2)ccc(/C=N/O)c1O` is 6.43 µM.
With `C/C(=N\O)c1ccc(-c2ccc(O)cc2)c(Cl)c1O`, the Ki was found to be 10.2 µM.
Same read-out and setting: the figure for `O/N=C/c1cc(-c2ccc(O)c(F)c2)ccc1O` is 6.99 µM.

The target in another assay is Carbonic anhydrase 2 (Homo sapiens, UniProt P00918). Briefly: Inhibition of human recombinant carbonic anhydrase 2 preincubated for 15 mins by CO2 hydration stopped-flow assay.
On to `COc1ccc(-c2ccc(O)c(/C=N/O)c2)cc1F`, for which the Ki amounted to 3.66 µM.
The same measure, in the same setting: the figure for `N#Cc1c(-c2ccc(O)cc2)ccc(/C=N/O)c1O` is 5.87 µM.
For `O/N=C/c1c(O)ccc(-c2ccc(O)cc2)c1Cl`, the Ki was 2.3 µM.
Same read-out and setting: the figure for `C/C(=N\O)c1ccc(-c2ccc(O)c(F)c2)c(Cl)c1O` is 4.96 µM; for `O/N=C/c1c(O)ccc(-c2ccc(O)c(F)c2)c1Cl` it is 3.74 µM; for `Oc1cc(F)cc(F)c1` it is 340 µM.
Same read-out and setting: the result for `Cc1c(-c2ccc(O)cc2)ccc(/C=N/O)c1O` reads 6.35 µM; that for `C/C(=N\O)c1ccc(-c2ccc(O)cc2)c(Cl)c1O`, 3.32 µM.
On the same count and under the same terms, the figure for `O/N=C/c1cc(-c2ccc(O)c(F)c2)ccc1O` is 4.13 µM.

A further assay addresses Carbonic anhydrase 1 (Homo sapiens, UniProt P00915). Briefly: Inhibition of human recombinant carbonic anhydrase 1 preincubated for 15 mins by CO2 hydration stopped-flow assay.
As for `COc1ccc(-c2ccc(O)c(/C=N/O)c2)cc1F`, the Ki was 6.93 µM.
`N#Cc1c(-c2ccc(O)cc2)ccc(/C=N/O)c1O`: the Ki is 7.65 µM.
`O/N=C/c1c(O)ccc(-c2ccc(O)cc2)c1Cl`: the Ki was found to be 3.98 µM.
Still for that read-out and setting: the result for `C/C(=N\O)c1ccc(-c2ccc(O)c(F)c2)c(Cl)c1O` reads 7.57 µM; that for `O/N=C/c1c(O)ccc(-c2ccc(O)c(F)c2)c1Cl`, 7.27 µM.
On to `Cc1c(-c2ccc(O)cc2)ccc(/C=N/O)c1O`, for which the Ki turned out to be 7.88 µM.
Still for that read-out and setting: the result for `C/C(=N\O)c1ccc(-c2ccc(O)cc2)c(Cl)c1O` reads 6.9 µM; that for `O/N=C/c1cc(-c2ccc(O)c(F)c2)ccc1O`, 9.13 µM.
